Data taken from article PMC9187613 (Bioorganic chemistry, 2022).
“Also recorded” adds a separate entry of the source. Like-named read-outs stand apart in the source and are kept apart here.

Tests used:
ZIKV NS2B-NS3 protease = ZIKV NS2B-NS3 protease (Zika virus, UniProt A0A024B7W1); test: NS2B-NS3 protease activity assay; type: biochemical; settings: for inhibition of protease activity: single 200 μM concentration, 80% threshold
[1] = system: Zika virus (ATCC strain MR 766); test: ZIKV replication in Vero cells, virus titers by plaque assay; settings: for concentration at which replication was blocked completely: 48 h; for EC50: read-out: Antiviral EC50, MOI 1, 48 h, plaque assay
Vero cells = test: Cytotoxicity assay; settings: for CC50: 48 h, LDH release
ZIKV NS5 RdRp = ZIKV NS5 RdRp (Zika virus, UniProt A0A024B7W1); test: NS5 RNA-dependent RNA-polymerase activity assay; type: biochemical; settings: for inhibition of the RdRp (in words): activity assays
ZIKV NS5 RdRp, sequence (A0A024B7W1 2826-3423): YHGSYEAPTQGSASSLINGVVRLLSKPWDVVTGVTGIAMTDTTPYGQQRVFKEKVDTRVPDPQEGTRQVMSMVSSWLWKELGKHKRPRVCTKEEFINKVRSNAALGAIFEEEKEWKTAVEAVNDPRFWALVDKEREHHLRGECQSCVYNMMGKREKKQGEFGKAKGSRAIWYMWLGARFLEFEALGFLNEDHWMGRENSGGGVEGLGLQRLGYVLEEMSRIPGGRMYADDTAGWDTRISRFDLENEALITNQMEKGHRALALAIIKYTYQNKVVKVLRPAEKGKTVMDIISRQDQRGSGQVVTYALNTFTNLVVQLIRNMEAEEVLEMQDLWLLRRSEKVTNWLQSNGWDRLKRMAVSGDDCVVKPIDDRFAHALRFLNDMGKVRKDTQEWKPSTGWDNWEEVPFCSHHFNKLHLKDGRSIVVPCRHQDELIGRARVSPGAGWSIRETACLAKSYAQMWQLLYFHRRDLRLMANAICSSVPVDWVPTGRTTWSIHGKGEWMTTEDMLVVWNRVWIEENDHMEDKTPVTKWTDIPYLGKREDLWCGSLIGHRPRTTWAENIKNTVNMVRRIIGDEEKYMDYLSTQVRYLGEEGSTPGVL

DENV2 NS2B-NS3 protease = settings: cited from earlier work
[2] = system: papain-like protease (PL^pro); settings: cited from earlier work
[3] = read-out: NS3pro IC50, 4 nM enzyme, 30 μM Bz-nKRR-AMC, 37 °C

ZIKV NS2B-NS3 protease, sequence (A0A024B7W1 1425-1464): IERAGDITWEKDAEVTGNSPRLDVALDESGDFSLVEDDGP
ZIKV NS2B-NS3 protease, sequence (A0A024B7W1 1503-1680): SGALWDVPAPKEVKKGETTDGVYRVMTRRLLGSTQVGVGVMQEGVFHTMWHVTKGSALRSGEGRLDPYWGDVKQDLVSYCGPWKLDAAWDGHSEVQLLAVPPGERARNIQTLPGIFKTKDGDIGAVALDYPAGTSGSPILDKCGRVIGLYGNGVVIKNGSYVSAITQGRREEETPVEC

Row | Compound | IC50 (ZIKV NS2B-NS3 protease; [3]) [µM] | inhibition of protease activity (ZIKV NS2B-NS3 protease) [%] | concentration at which replication was blocked completely [1] [µM] | EC50 [1] [µM] | CC50 (Vero cells) [µM] | inhibition of the RdRp (in words) (ZIKV NS5 RdRp) | mode of DENV2 NS2B-NS3 protease inhibition (DENV2 NS2B-NS3 protease) | also measured
1 | COc1ccc(C(=O)/C=C/c2ccc(O)cc2)c(O)c1CC=C(C)C [4-HD, 4-hydroxyderricin] | 47 ± 10 | > 80 | 45 | 6.6 | 103 ± 14 | XA, but not 4HD or XA-E, inhibited | – | –
2 | CC(C)=CC[C@@H]1C(C)=CC[C@@H](c2ccccc2)[C@@H]1C(=O)c1c(O)cc(O)cc1O [4-hydroxypanduratin A] | – | – | – | – | – | – | competitive inhibitory activity | –
3 | CC(C)=CCC/C(C)=C/Cc1c(O)ccc(C(=O)/C=C/c2ccc(O)cc2)c1O [XA, Xanthoangelol] | – | – | – | – | – | – | – | IC50 (ZIKV NS2B-NS3 protease): 50 ± 5 µM; inhibition at 200 µM (ZIKV NS2B-NS3 protease; read-out: inhibition of protease activity): > 80%; anti-ZIKV activity (in words) ([1]; concentrations exceeding 50 μM): relatively weak anti-ZIKV activity; also recorded: only weak inhibition of ZIKV growth; cytotoxic effects (in words) (Vero cells): did not display cytotoxic; IC50 (ZIKV NS5 RdRp): 6.9 ± 0.9 µM; inhibition of polymerase activity (ZIKV NS5 RdRp; 20 μM endpoint assay): 85%
4 | C=C(C)C(Cc1c(OC)ccc(C(=O)/C=C/c2ccc(O)cc2)c1O)OO (centres unmarked) [XA-E, Xanthoangelol E] | 18 ± 5 | > 80 | 75 | 22 | 111 ± 10 | XA, but not 4HD or XA-E, inhibited | – | mode of protease inhibition (ZIKV NS2B-NS3 protease; Michaelis-Menten and Lineweaver-Burk, consistent Km, decreasing Vmax): noncompetitive mode of inhibition; mode of SARS-CoV PL^pro inhibition [2]: non-competitive mode; IC50 ([2]; read-out: SARS-CoV PL^pro IC50): 1.2 µM
5 | COc1cc(O)c(C(=O)[C@@H]2[C@H](CC=C(C)C)C(C)=CC[C@H]2c2ccccc2)c(O)c1 [panduratin A] | – | – | – | – | – | – | competitive inhibitory activity | –
